Here are results for one molecule from patent US8653099B2, “Cold menthol receptor antagonists” (Janssen Pharmaceutica, priority 2008, dated 2014).

The subject of one assay is Sprague-Dawley rats. The assay can be described thus: CFA-induced paw radiant heat hypersensitivity. The conditions noted are these: rat, 30 mg/kg PO, 24 h after intraplantar CFA, radiant heat withdrawal latency. Type of assay: in vivo. As to the method:
Intraplantar injection of complete Freund's adjuvant (CFA) in rodents results in a long-lasting inflammatory reaction, characterized by a pronounced hypersensitivity to both thermal and mechanical stimuli. This hypersensitivity peaks between 24-72 hours following injection and can last for several weeks. To assess whether test compounds of the formula (I) reverse established hypersensitivity, a 100 μL intraplantar injection of CFA (suspended in a 1:1 emulsion of saline and heat-killed Mycobacterium tuberculosis in mineral oil) can be injected into a single hind paw of Sprague-Dawley rats (typically males ranging from 150-350 g). […]
Each rat is placed in a test chamber on a warm glass surface and allowed to acclimate for approximately 10 minutes. […] An initial (baseline) response latency to the thermal stimulus is recorded for each animal prior to the injection of CFA. Twenty-four hours following intraplantar CFA injection, the response latency of the animal to the thermal stimulus is then re-evaluated and compared to the animal's baseline response time. […] Post-compound treatment withdrawal latencies are assessed at fixed time intervals, typically 30, 60 and 120 minutes. The percent reversal (% R) of hypersenstivitiy is calculated according to the following formula: % Reversal=(Treatment Response−CFA Response)/(Baseline Response−CFA Response)×100.

The next assay addresses T1, canine TRPM8 (Canis lupus familiaris, UniProt Q1A7N1).
T1 construct: expressed in transfected cells
The assay can be described thus: In vitro canine TRPM8 functional assay (icilin-induced Ca2+ fluorescence, FLIPR/FDSS). Type of assay: cell-based. As to the method:
The functional activity of compounds of the formula (I) was determined by measuring changes in intracellular calcium concentration using a Ca^2+-sensitive fluorescent dye. The changes in fluorescent signal were monitored by a fluorescence plate reader, either a FLIPR™ (Molecular Devices) or FDSS (Hamamatsu).
HEK293 cells stably expressing canine TRPM8 were routinely grown as monolayers in Dulbecco's minimum essential medium supplemented with 10% FBS, 2 mM L-glutamine, 100 units/mL penicillin, 100 ug/mL streptomycin and 400 μg/mL G418. Cells were maintained in 5% CO2 at 37° C. At 24 hrs prior to assay, cells were seeded in black wall, clear-base poly-D-lysine coated 384-well plates (BD Biosciences, NJ, USA) at a density of 5,000 cells per well in culture medium and grown overnight in 5% CO2 at 37° C. On assay day, growth media was removed and cells were loaded with Calcium 3 Dye (Molecular Devices) for 35 min at 37° C., under 5% CO2 and then for 25 min at room temperature and atmosphere. Subsequently, cells were tested for agonist-induced increases in intracellular Ca^2+ levels using FLIPR™ or FDSS. Cells were challenged with compounds of the formula (I) (at varying concentrations) and intracellular Ca^2+ was measured for 5 min prior to the addition of icilin to all wells to achieve a final concentration that produces approximately an 80% maximal response.
Maximal fluorescence intensity (FI) achieved upon addition of icilin was exported from the FLIPR or FDSS software and further analyzed using GraphPad Prism 3.02 (Graph Pad Software Inc., CA, U.S.A.). Basal FI was subtracted prior to normalizing data to percent of maximal response. Curves were generated using the average of quadruplicate wells for each data point, were analyzed using nonlinear regression of either sigmoidal dose response or sigmoidal dose response (variable slope). Finally, the EC50 and IC50 values were calculated with the best-fit dose curve determined by GraphPad Prism.

The structures appear in SMILES notation. Where “and” joins values, the source holds several entries; their conditions need not be identical. Equal entries are not always repeated.

T1 sequence (Q1A7N1 1-1104): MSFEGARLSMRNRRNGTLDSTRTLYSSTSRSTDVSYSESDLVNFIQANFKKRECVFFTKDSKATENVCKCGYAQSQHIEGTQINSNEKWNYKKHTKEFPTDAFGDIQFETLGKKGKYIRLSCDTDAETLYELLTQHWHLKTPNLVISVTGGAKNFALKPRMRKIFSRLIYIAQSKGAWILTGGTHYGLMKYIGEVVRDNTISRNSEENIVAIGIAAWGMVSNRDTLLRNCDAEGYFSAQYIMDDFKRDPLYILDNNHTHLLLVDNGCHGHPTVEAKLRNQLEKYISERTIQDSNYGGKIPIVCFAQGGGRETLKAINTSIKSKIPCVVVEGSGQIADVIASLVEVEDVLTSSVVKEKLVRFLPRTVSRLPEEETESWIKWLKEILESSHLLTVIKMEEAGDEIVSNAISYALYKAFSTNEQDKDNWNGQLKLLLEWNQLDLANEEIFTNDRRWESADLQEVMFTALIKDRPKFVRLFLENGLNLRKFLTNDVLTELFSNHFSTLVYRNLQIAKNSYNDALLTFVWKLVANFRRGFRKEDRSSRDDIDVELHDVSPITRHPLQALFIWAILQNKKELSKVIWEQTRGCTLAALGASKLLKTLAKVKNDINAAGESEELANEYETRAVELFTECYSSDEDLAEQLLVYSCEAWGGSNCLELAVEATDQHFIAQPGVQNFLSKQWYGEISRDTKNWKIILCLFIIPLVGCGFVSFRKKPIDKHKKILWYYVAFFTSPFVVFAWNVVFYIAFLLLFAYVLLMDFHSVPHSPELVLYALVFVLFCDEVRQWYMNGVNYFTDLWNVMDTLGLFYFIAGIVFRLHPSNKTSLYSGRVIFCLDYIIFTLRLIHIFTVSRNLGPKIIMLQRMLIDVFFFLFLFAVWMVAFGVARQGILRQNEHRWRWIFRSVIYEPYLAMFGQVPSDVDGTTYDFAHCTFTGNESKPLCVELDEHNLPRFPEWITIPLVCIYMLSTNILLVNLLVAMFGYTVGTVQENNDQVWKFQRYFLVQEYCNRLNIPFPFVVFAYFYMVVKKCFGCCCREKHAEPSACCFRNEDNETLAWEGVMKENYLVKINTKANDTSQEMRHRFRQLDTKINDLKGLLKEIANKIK

As for `O=C(Nc1cccc2cnccc12)C(Nc1ccccc1F)c1ccc(C(F)(F)F)cc1` (stereo not drawn) [Cpd 24, 2-(2-Fluorophenylamino)-N-(isoquinolin-5-yl)-2-(4-(trifluoromethyl)phenyl)acetamide], in the assay on Sprague-Dawley rats, the “% Reversal @ 2 h” value was 28%. For the same molecule, the inhibition (in general, the relative decrease from the control value, in per cent) at 0.5 µM on canine TRPM8 (HEK293, 0.5 μM compound, HEK293 canine TRPM8, icilin challenge) came out at 104%. Moreover, the IC50 (as a rule, the midpoint of a concentration-inhibition curve) at canine TRPM8 (HEK293 cells stably expressing canine TRPM8, icilin at approx. 80% maximal response, eight-point dose-response) is 54.9 nM and 44.3 nM.
